These results are taken from US10287253B2, “Substituted pyrimidines containing acidic groups as TLR7 modulators” (Apros Therapeutics, Inc., priority 2016, dated 2019).

The target of one data set is human TLR7 (hTLR7) (Homo sapiens (Human), UniProt Q9NYK1). In words: HEK TLR7 assay (HEK-Blue hTLR7 cells, NF-kB/AP-1 SEAP reporter). Format: cell-based. The note with it: for EC50: HEK-Blue hTLR7 cells, 16 h incubation, SEAP read at 620-655 nm. The source says:
HEK-Blue™ TLR7 cells were purchased from Invivogen (San Diego, Calif.). The following description was taken from the product information sheet.
“HEK-Blue™ hTLR7 cells are designed for studying the stimulation of human TLR7 (hTLR7) by monitoring the activation of NF-kB. HEK-Blue™ hTLR7 cells were obtained by co-transfection of the hTLR7 gene and an optimized secreted embryonic alkaline phosphatase (SEAP) reporter gene into HEK293 cells. The SEAP reporter gene is placed under the control of the IFN-b minimal promoter fused to five NF-kB and AP-1-binding sites. Stimulation with a TLR7 ligand activates NF-kB and AP-1 which induce the production of SEAP, which is detected by the HEK-Blue™ Detection cell culture medium.”
A typical assay protocol involved the following steps: • 1. Cells were cultured according to the product information sheet. • 2. 10 mM compound stock in DMSO were first diluted to 3 mM and then 3-fold serially diluted using DMSO to afford a 10-pt dilution. • 3. 3 μl of the diluted DMSO were added to 57 μl HEK-Blue™ Detection media for a further 20-fold dilution. • 4. 10 μl of the diluted compound in assay media were added into 40 μl cell culture (in HEK-Blue™ Detection media) in 384-well plate. Final cell concentration=8,000 cells per well. • 5. The plates were incubated at 37° C. in 5% CO2 for 16 h. SEAP was determined using a spectrophotometer at 620-655 nm.

Data set [1] in a line: Pharmacokinetics experiments: mouse liver-to-serum concentration (L:S). Format: in vivo. The note with it: BALB/c mice, 10 mg/kg p.o., 5 hour post dose. Here is the method: BALB/c mice were dosed p.o. with 10 mg/kg compound formulated in 0.5% carboxy methycellulose+0.5% Tween-80 suspension. Mice were bled retro-orbitally at different time points post dose. Blood was processed into serum by centrifugation followed by protein precipitation, reverse-phase gradient elution and MRM detection via ESI+mass spectrometry to determine compound concentration. Animals were sacrificed after the final blood collection (5 hour), liver removed and flash frozen in liquid nitrogen for tissue PK analyses. The liver-to-serum concentration (L:S) at 5 hour post dose is one parameter for identifying compounds with potential enrichment in liver.
Mouse liver-to-serum concentration (L:S) table below provides results.

Each structure is given as a SMILES string.

Chain of human TLR7 (hTLR7) (Q9NYK1 27-1049): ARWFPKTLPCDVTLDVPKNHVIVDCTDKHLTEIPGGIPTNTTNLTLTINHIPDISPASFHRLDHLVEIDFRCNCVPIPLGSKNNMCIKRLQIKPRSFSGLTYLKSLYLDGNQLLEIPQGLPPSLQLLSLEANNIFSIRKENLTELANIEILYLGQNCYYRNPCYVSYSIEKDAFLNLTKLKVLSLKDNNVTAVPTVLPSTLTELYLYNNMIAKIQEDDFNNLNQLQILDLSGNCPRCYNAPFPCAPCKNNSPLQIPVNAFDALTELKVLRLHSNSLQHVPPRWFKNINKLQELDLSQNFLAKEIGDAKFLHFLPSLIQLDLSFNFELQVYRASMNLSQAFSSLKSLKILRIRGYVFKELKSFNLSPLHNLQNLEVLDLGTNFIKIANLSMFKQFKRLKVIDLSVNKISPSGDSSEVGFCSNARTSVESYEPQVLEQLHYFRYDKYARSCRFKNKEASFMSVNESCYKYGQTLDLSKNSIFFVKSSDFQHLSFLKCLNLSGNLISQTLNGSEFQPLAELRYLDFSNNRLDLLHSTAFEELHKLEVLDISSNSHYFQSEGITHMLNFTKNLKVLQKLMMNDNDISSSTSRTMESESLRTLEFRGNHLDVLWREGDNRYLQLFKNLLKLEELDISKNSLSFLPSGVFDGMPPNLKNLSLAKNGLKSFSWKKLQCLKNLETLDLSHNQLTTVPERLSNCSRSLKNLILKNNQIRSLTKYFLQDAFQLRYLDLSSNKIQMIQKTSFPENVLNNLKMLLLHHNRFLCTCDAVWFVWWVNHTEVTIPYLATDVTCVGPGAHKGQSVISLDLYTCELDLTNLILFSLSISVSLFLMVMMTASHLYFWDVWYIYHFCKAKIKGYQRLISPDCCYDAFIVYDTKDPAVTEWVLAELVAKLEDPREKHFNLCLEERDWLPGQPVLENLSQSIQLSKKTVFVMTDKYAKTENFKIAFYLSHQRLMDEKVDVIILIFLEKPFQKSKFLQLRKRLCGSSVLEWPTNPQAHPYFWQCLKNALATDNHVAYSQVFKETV

As to `CCCCNc1nc(N)nc(C)c1Cc1cc(C(C)(C)C(=O)O)ccc1OC` [Compound 9, 2-(3-((2-amino-4-(butylamino)-6-methylpyrimidin-5-yl)methyl)-4-methoxyphenyl)-2-methylpropanoic acid], on human TLR7 (hTLR7), the EC50 (usually the concentration needed to bring the measured effect to its halfway point) lay within 100 to 1000 nM. Besides, the “L:S at 5 hr (liver-to-serum concentration)” value (shortened to “L:S at 5 hr”) in data set [1] was “A (A = >100 represents high liver-enrichment)”.
The corresponding values for `CCCCNc1nc(N)nc(CCC(=O)O)c1Cc1ccccc1OC` [Compound 15, 3-(2-amino-6-(butylamino)-5-(2-methoxybenzyl)pyrimidin-4-yl)propanoic acid] are 100 to 1000 nM and “B (B = 10-100 represents moderate liver-enrichment)”.
In turn, `CCCCNc1nc(N)nc(C)c1Cc1cc(-c2nn[nH]n2)ccc1OC` [Compound 11, N4-butyl-5-(2-methoxy-5-(2H-tetrazol-5-yl)benzyl)-6-methylpyrimidine-2,4-diamine] displayed an EC50 on human TLR7 (hTLR7) of 100 to 1000 nM. The “L:S at 5 hr” value in data set [1] is listed as “A (A = >100 represents high liver-enrichment)”.
On human TLR7 (hTLR7), `CCCC[C@@H](CCSC)Nc1nc(N)nc(C)c1Cc1cc(-c2nn[nH]n2)ccc1OC` [Compound 34, (S)-5-(2-methoxy-5-(2H-tetrazol-5-yl)benzyl)-6-methyl-N^4-(1-(methylthio)heptan-3-yl)pyrimidine-2,4-diamine] displayed a concentration giving a half-maximal response (EC50) of less than 100 nM. Also, in data set [1], the “L:S at 5 hr” value is on record as “A (A = >100 represents high liver-enrichment)”.
In the case of `CCCC[C@@H](CC(=O)O)Nc1nc(N)nc(C)c1Cc1cc(Cc2nn[nH]n2)ccc1OC` [Compound 20, (S)-3-((5-(5-((2H-tetrazol-5-yl)methyl)-2-methoxybenzyl)-2-amino-6-methylpyrimidin-4-yl)amino)heptanoic acid], on human TLR7 (hTLR7) (Compound 20 vs Compound 20C), the “potency of (S)-enantiomer relative to (R)-enantiomer (Compound 20C) in the HEK-TLR7 assay” value is on record as more than 10 fold. Also, on human TLR7 (hTLR7), the EC50 lay within 100 to 1000 nM. Besides, the “L:S at 5 hr” value in data set [1] is “A (A = >100 represents high liver-enrichment)”.
The compound `CCCCNc1nc(N)nc(CCC(=O)O)c1Cc1cc(C(C)(C)C(=O)O)ccc1OC` [Compound 43, 2-(3-((2-amino-4-(butylamino)-6-(2-carboxyethyl)pyrimidin-5-yl)methyl)-4-methoxy-phenyl)-2-methylpropanoic acid] showed an EC50 at human TLR7 (hTLR7) of 1000 to 10000 nM. The “L:S at 5 hr” value in data set [1] is reported as “A (A = >100 represents high liver-enrichment)”.
`CCCCNc1nc(N)nc(C)c1Cc1cc(B(O)O)ccc1OC` [Compound 24, (3-((2-amino-4-(butylamino)-6-methylpyrimidin-5-yl)methyl)-4-methoxyphenyl)boronic acid] returned an EC50 at human TLR7 (hTLR7) of less than 100 nM. In addition, the “L:S at 5 hr” value in data set [1] was “B (B = 10-100 represents moderate liver-enrichment)”.
Compound `CCCC[C@@H](CCOC)Nc1nc(N)nc(C)c1Cc1cc(Cc2nn[nH]n2)ccc1OC` [Compound 32, (S)-5-(5-((2H-tetrazol-5-yl)methyl)-2-methoxybenzyl)-N^4-(1-methoxyheptan-3-yl)-6-methylpyrimidine-2,4-diamine] returned an EC50 at human TLR7 (hTLR7) of less than 100 nM. Further, in data set [1], the “L:S at 5 hr” value is recorded as “A (A = >100 represents high liver-enrichment)”.
The corresponding values for `CCCC[C@@H](CCSC)Nc1nc(N)nc(C)c1Cc1cc(C(C)(C)C(=O)O)ccc1OC` [Compound 33, (S)-2-(3-((2-amino-4-methyl-6-((1-(methylthio)heptan-3-yl)amino)pyrimidin-5-yl)methyl)-4-methoxyphenyl)-2-methylpropanoic acid] are less than 100 nM and “A (A = >100 represents high liver-enrichment)”.
Compound `CCCCNc1nc(N)nc(C)c1Cc1cc(C(C)(C)c2nn[nH]n2)ccc1OC` [Compound 10, 5-(5-(2-(2H-tetrazol-5-yl)propan-2-yl)-2-methoxybenzyl)-N4-butyl-6-methylpyrimidine-2,4-diamine] had an EC50 on human TLR7 (hTLR7) of 100 to 1000 nM. Also, the “L:S at 5 hr” value in data set [1] is listed as “B (B = 10-100 represents moderate liver-enrichment)”.
`CCCCNc1nc(N)nc(C)c1Cc1cc(P(=O)(O)O)ccc1OC` [Compound 12, (3-((2-amino-4-(butylamino)-6-methylpyrimidin-5-yl)methyl)-4-methoxyphenyl)phosphonic acid] registered an EC50 at human TLR7 (hTLR7) of 100 to 1000 nM. For the same compound, the “L:S at 5 hr” value in data set [1] is reported as “B (B = 10-100 represents moderate liver-enrichment)”.
As to `CCCC[C@@H](CC(=O)O)Nc1nc(N)nc(C)c1Cc1cc(C(C)(C)C(=O)O)ccc1OC` [Compound 42, (S)-3-((2-amino-5-(5-(2-carboxypropan-2-yl)-2-methoxybenzyl)-6-methylpyrimidin-4-yl)amino)heptanoic acid], at human TLR7 (hTLR7), the EC50 is 100 to 1000 nM. Besides, in data set [1], the “L:S at 5 hr” value is recorded as “A (A = >100 represents high liver-enrichment)”.
The compound `CCCCNc1nc(N)nc(C)c1Cc1cc(C(=O)NCCCP(=O)(O)O)ccc1OC` [Compound 30, (3-(3-((2-amino-4-(butylamino)-6-methylpyrimidin-5-yl)methyl)-4-methoxybenzamido)propyl)phosphonic acid] returned an EC50 on human TLR7 (hTLR7) of 100 to 1000 nM. Besides, in data set [1], the “L:S at 5 hr” value is listed as “A (A = >100 represents high liver-enrichment)”.
For `CCCCNc1nc(N)nc(CCC(=O)O)c1Cc1cc(Cc2nn[nH]n2)ccc1OC` [Compound 40, 3-(5-(5-((2H-tetrazol-5-yl)methyl)-2-methoxybenzyl)-2-amino-6-(butylamino)pyrimidin-4-yl)propanoic acid] the same measures were 100 to 1000 nM and “A (A = >100 represents high liver-enrichment)”.
`CCCCNc1nc(N)nc(C)c1Cc1cc(S(=O)(=O)O)ccc1OC` [Compound 17, 3-((2-amino-4-(butylamino)-6-methylpyrimidin-5-yl)methyl)-4-methoxybenzenesulfonic acid]: at human TLR7 (hTLR7), the EC50 is less than 100 nM. In addition, in data set [1], the “L:S at 5 hr” value is “B (B = 10-100 represents moderate liver-enrichment)”.
In the case of `CCCCNc1nc(N)nc(C)c1Cc1cc(C2(c3nn[nH]n3)CC2)ccc1OC` [Compound 13, 5-(5-(1-(2H-tetrazol-5-yl)cyclopropyl)-2-methoxybenzyl)-N4-butyl-6-methylpyrimidine-2,4-diamine], on human TLR7 (hTLR7), the EC50 lay within 100 to 1000 nM. The “L:S at 5 hr” value in data set [1] is listed as “B (B = 10-100 represents moderate liver-enrichment)”.
`CCCC[C@@H](CC(=O)O)Nc1nc(N)nc(CCC(=O)O)c1Cc1ccccc1OC` [Compound 29, (S)-3-((2-amino-6-(2-carboxyethyl)-5-(2-methoxybenzyl)pyrimidin-4-yl)amino)heptanoic acid] registered an EC50 on human TLR7 (hTLR7) of 100 to 1000 nM. Besides, in data set [1], the “L:S at 5 hr” value is listed as “A (A = >100 represents high liver-enrichment)”.
The corresponding values for `CCCC[C@@H](CC(=O)O)Nc1nc(N)nc(C)c1Cc1cc(C(=O)NCCCP(=O)(O)O)ccc1OC` [Compound 44, (S)-3-((2-amino-5-(2-methoxy-S-((3-phosphonopropyl)carbamoyl)benzyl)-6-methyl-pyrimidin-4-yl)amino)heptanoic acid] are 100 to 1000 nM and “B (B = 10-100 represents moderate liver-enrichment)”.
On human TLR7 (hTLR7), `CCCCNc1nc(N)nc(C)c1Cc1cc(Cc2nn[nH]n2)ccc1OC` [Compound 3, 5-(5-((2H-tetrazol-5-yl)methyl)-2-methoxybenzyl)-N4-butyl-6-methylpyrimidine-2,4-diamine] returned an EC50 of 100 to 1000 nM. In data set [1], the “L:S at 5 hr” value is recorded as “A (A = >100 represents high liver-enrichment)”.
`CCCC[C@@H](CCO)Nc1nc(N)nc(C)c1Cc1cc(Cc2nn[nH]n2)ccc1OC` [Compound 18, (S)-3-((5-(5-((2H-tetrazol-5-yl)methyl)-2-methoxybenzyl)-2-amino-6-methylpyrimidin-4-yl)amino)heptan-1-ol] displayed an EC50 at human TLR7 (hTLR7) of less than 100 nM. Also, the “L:S at 5 hr” value in data set [1] is on record as “A (A = >100 represents high liver-enrichment)”.
The compound `CCCC[C@@H](CC(=O)O)Nc1nc(N)nc(CCC(=O)O)c1Cc1cc(C(C)(C)C(=O)O)ccc1OC` [Compound 45, (S)-3-((2-amino-6-(2-carboxyethyl)-5-(5-(2-carboxypropan-2-yl)-2-methoxy-benzyl)pyrimidin-4-yl)amino)heptanoic acid] had an EC50 at human TLR7 (hTLR7) of 1000 to 10000 nM. The “L:S at 5 hr” value in data set [1] is on record as “A (A = >100 represents high liver-enrichment)”.
For `CCCC[C@@H](CC(=O)O)Nc1nc(N)nc(CCC(=O)O)c1Cc1cc(Cc2nn[nH]n2)ccc1OC` [Compound 46, (S)-3-((5-(5-((2H-tetrazol-5-yl)methyl)-2-methoxybenzyl)-2-amino-6-(2-carboxyethyl)-pyrimidin-4-yl)amino)heptanoic acid] the same measures were 100 to 1000 nM and “B (B = 10-100 represents moderate liver-enrichment)”.
